Source: article PMC5677544 (Analytical chemistry, 2017)
Like-named read-outs stand apart in the source and are kept apart here.

How the values were obtained:
Assay in all cases: ESI-MS titration
Assay type in all cases: binding
[1] = target: T1, β-2-microglobulin (β2m) (Homo sapiens, UniProt P61769)
[2] = target: T1, β-2-microglobulin (β2m); remark: listed apart in the source
[3] = target: T1, β-2-microglobulin (β2m); remark: listed apart in the source

T1 sequence (P61769 21-119): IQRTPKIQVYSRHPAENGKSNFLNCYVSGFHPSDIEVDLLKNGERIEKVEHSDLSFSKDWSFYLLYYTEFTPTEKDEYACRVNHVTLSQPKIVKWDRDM

With `C[C@H]1c2cccc(O)c2C(=O)C2=C(O)[C@]3(O)C(=O)C(C(N)=O)=C(O)[C@@H](N(C)C)[C@@H]3[C@@H](O)[C@@H]21` [doxycycline] the Kd [1] was 200 ± 20 µM.

Molecule `CO[C@H]1/C=C/O[C@@]2(C)Oc3c(C)c(O)c4c(O)c(cc(O)c4c3C2=O)NC(=O)/C(C)=C\C=C\[C@H](C)[C@H](O)[C@@H](C)[C@@H](O)[C@@H](C)[C@H](OC(C)=O)[C@@H]1C` [rifamycin SV] has a Kd [2] of 250 ± 25 µM.

In the case of `Cc1ccc(C(=O)Nc2ccc(S(=O)(=O)O)c3cc(S(=O)(=O)O)cc(S(=O)(=O)O)c23)cc1NC(=O)c1cccc(NC(=O)Nc2cccc(C(=O)Nc3cc(C(=O)Nc4ccc(S(=O)(=O)O)c5cc(S(=O)(=O)O)cc(S(=O)(=O)O)c45)ccc3C)c2)c1` [suramin], the Kd [3] is reported as 40 ± 2 µM.
